# Earlier results in patent US20120058205A1, “COMPOSITIONS AND TREATMENT REGIMES FOR REDUCING INFLAMMATION, END-ORGAN INJURY, AND/OR SYSTEMIC ENDOTOXEMIA” (priority 2009, published 2012).
# Legend:
# [1] = consistently above; also printed as 500 nmol/L; possible hypercalcemia and hyperphosphatemia
# [2] = animal model; also printed as ≦1,000 nmol/L
# [3] = system: aldosterone; details: administration to diabetic patients
structure (smiles),measurement,setting,value
"C=C1/C(=C\C=C2/CCC[C@]3(C)[C@@H]([C@H](C)CCCC(C)(C)O)CC[C@@H]23)C[C@@H](O)C[C@@H]1O [1,25(OH)2D, 1,25-dihydroxyvitamin D]",half-life,circulating,15 h
"C=C1CC[C@H](O)C/C1=C/C=C1\CCC[C@]2(C)[C@@H]([C@H](C)CCCC(C)(C)O)CC[C@@H]12 [25(OH)D, 25-hydroxyvitamin D]",circulating half-life,in vivo,15 days
same,serum concentration considered potentially toxic,[1],above 200 ng/mL
same,concentrations that demonstrated no toxicity,[2],≤ 400 ng/mL
CC(=O)S[C@@H]1CC2=CC(=O)CC[C@]2(C)[C@H]2CC[C@@]3(C)[C@@H](CC[C@@]34CCC(=O)O4)[C@H]12 [spironolactone],increase of aldosterone levels,[3],≥ 400%
